Consider six molecules from patent publication US20240116985A1, “STAPLED PEPTIDES AND METHODS THEREOF” (priority 2020, published 2024).

For this assay, the target named is T1, full-length beta-Catenin (Uniprot ID P35222) (Homo sapiens, UniProt P35222).
T1 construct: 10 nM full-length beta-Catenin (Uniprot ID P35222)
T1 sequence (P35222 1-781): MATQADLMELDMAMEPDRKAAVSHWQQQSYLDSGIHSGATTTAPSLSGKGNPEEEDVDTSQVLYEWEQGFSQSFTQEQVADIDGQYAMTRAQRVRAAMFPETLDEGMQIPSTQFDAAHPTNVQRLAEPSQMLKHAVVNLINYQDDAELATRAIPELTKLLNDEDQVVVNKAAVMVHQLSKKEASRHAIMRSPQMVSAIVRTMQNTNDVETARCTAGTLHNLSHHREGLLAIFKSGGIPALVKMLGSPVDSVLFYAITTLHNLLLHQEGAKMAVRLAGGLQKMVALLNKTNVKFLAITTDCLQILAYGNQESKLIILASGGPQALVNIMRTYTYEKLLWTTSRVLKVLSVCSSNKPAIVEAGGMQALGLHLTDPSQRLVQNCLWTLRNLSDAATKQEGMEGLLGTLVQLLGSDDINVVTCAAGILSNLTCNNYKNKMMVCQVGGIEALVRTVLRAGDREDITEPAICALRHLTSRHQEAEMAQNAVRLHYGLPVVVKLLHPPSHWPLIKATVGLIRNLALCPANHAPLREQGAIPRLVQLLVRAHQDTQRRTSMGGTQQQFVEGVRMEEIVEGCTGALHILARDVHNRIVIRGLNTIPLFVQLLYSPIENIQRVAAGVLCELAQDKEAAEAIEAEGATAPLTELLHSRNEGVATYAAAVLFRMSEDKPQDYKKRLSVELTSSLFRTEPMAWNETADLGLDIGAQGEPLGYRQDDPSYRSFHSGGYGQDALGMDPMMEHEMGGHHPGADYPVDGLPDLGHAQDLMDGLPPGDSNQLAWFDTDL
The experiment in a line: Fluorescence polarization IC50 (beta-catenin / 5FAM-TCF4 10-53 competition). The format is binding. To be noted: fluorescence polarization; read-out: beta-Catenin FP IC50.
`CC(=O)N1CCC[C@]12CC=CCCCC1(CCCC=CCCCOC(=O)N3CCC(C(=O)N[C@@H](Cc4ccccc4C(F)(F)F)C(=O)N[C@@H](Cc4csc5ccccc45)C(=O)N[C@@H](C)C(N)=O)(CC3)NC(=O)[C@H](CC(C)C)NC(=O)[C@H](Cc3ccccc3)NC(=O)[C@H](C)NC(=O)[C@H](CCC(N)=O)NC(=O)[C@H](Cc3cccc(C(=O)O)c3)NC(=O)[C@H](CC(=O)O)NC1=O)NC(=O)[C@H](CC(C)(C)C)NC(=O)[C@H](CC(=O)O)NC2=O` (stereo partly drawn) [I-2586, Ac-PL3-Asp-Npg-B5-Asp-3COOHF-Gln-Ala-Phe-Leu-SPip2-2F3MeF-BztA-Ala-NH2]: the 50% inhibitory concentration (IC50) turned out to be 345 nM.

Regarding `CC(=O)N1CCC[C@]12CC=CCCCC1(CCCC=CCCCCOC(=O)N3CCC(C(=O)N[C@@H](Cc4ccccc4C(F)(F)F)C(=O)N[C@@H](Cc4csc5ccccc45)C(=O)N[C@@H](C)C(N)=O)(CC3)NC(=O)[C@H](CC(C)C)NC(=O)[C@H](Cc3ccccc3)NC(=O)[C@H](C)NC(=O)[C@H](CCC(N)=O)NC(=O)[C@H](Cc3cccc(C(=O)O)c3)NC(=O)[C@H](CC(=O)O)NC1=O)NC(=O)[C@H](CC(C)(C)C)NC(=O)[C@H](CC(=O)O)NC2=O` (stereo partly drawn) [I-2587, Ac-PL3-Asp-Npg-B5-Asp-3COOHF-Gln-Ala-Phe-Leu-SPip3-2F3MeF-BztA-Ala-NH2], the concentration for half-maximal inhibition (IC50) was determined as 273 nM.

Take `CC(=O)N1CCC[C@]12CC=CCCCC1(CCCC=CCCCOC(=O)N3CCC(C(=O)N[C@@H](Cc4ccsc4)C(=O)N[C@@H](Cc4csc5ccccc45)C(=O)N[C@@H](CCC(N)=O)C(N)=O)(CC3)NC(=O)[C@H](CC(C)C)NC(=O)[C@H](Cc3ccccc3)NC(=O)[C@H](C)NC(=O)[C@H](C)NC(=O)[C@H](Cc3cccc(C(=O)O)c3)NC(=O)[C@H](CC(=O)O)NC1=O)NC(=O)[C@H](CC(C)(C)C)NC(=O)[C@H](CC(=O)O)NC2=O` (stereo partly drawn) [I-2588, Ac-PL3-Asp-Npg-B5-Asp-3COOHF-Ala-Ala-Phe-Leu-SPip2-3Thi-BztA-Gln-NH2]: the IC50 was determined as 26 nM.

Regarding `CC(=O)N1CCC[C@]12CC=CCCCC1(CCCC=CCCOC(=O)N3CCC(C(=O)N[C@@H](Cc4ccsc4)C(=O)N[C@@H](Cc4csc5ccccc45)C(=O)N[C@@H](C)C(N)=O)(CC3)NC(=O)[C@H](CC(C)C)NC(=O)[C@H](Cc3ccccc3)NC(=O)[C@H](C)NC(=O)[C@H](CCC(N)=O)NC(=O)[C@H](Cc3cccc(C(=O)O)c3)NC(=O)[C@H](CC(=O)O)NC1=O)NC(=O)[C@H](CC(C)(C)C)NC(=O)[C@H](CC(=O)O)NC2=O` (stereo partly drawn) [I-2591, Ac-PL3-Asp-Npg-B5-Asp-3COOHF-Gln-Ala-Phe-Leu-SPip1-3Thi-BztA-Ala-NH2], the IC50 was 602 nM.

For the molecule `CC(=O)N1CCC[C@]12CC1OC1CCCC1(CCCC=CCCCOC(=O)N3CC[C@@](C(=O)N[C@@H](Cc4ccccc4C(F)(F)F)C(=O)N[C@@H](Cc4csc5ccccc45)C(=O)N[C@@H](CCC(N)=O)C(N)=O)(C3)NC(=O)[C@H](CC(C)C)NC(=O)[C@H](Cc3ccccc3)NC(=O)[C@H](C)NC(=O)[C@H](C)NC(=O)[C@H](Cc3cccc(C(=O)O)c3)NC(=O)[C@H](CC(=O)O)NC1=O)NC(=O)[C@H](CC(C)(C)C)NC(=O)[C@H](CC(=O)O)NC2=O` (stereo partly drawn) [I-2597, Ac-PL3-Asp-Npg-B5-Asp-3COOHF-Ala-Ala-Phe-Leu-PyrS2-2F3MeF-BztA-Gln-NH2], the IC50 was found to be 726 nM.

Consider `CC(C)C[C@H](NC(=O)[C@]12CCN(C1)C(=O)OCCCC=CCCCC1(CCCC=CCCCC(=O)N3CCC[C@@]3(C)C(=O)N[C@@H](CC(=O)O)C(=O)N1)C(=O)N[C@@H](C)C(=O)N[C@@H](CC(=O)O)C(=O)N[C@@H](CC(=O)O)C(=O)N[C@@H](C)C(=O)N[C@@H](C)C(=O)N[C@@H](Cc1ccccc1)C(=O)N2)C(=O)N[C@@H](Cc1ccsc1)C(=O)N[C@@H](Cc1csc2ccccc12)C(=O)N[C@@H](CCC(N)=O)C(N)=O` (stereo partly drawn) [I-2598, 5hexenyl-MePro-Asp-B5-Ala-Asp-Asp-Ala-Ala-Phe-PyrS2-Leu-3Thi-BztA-Gln-NH2], for which the IC50 worked out at 1350 nM.
